Reference: ChEMBL document CHEMBL1201862, “PubChem BioAssay data set” (2004)
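All cell lines were grown in 96-well plates and treated with compound for 48 hours. GI50 = concentration required for 50% inhibition of growth.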 Active and inactive are the calls of the source. No stated cut-off is given here; in the data, active = GI50 up to about 1.1 µM and inactive = higher.

Key:
Assay in all cases: DTP human tumour cell line panel, 48 h
[1] = tested on: SN12C
[2] = tested on: COLO 205
[3] = tested on: NCI-H522
[4] = tested on: K562
[5] = tested on: HL-60
[6] = tested on: KM12
[7] = tested on: RPMI-8226
[8] = tested on: HT-29
[9] = tested on: SW-620
[10] = tested on: M19-MEL
[11] = tested on: MOLT-4
[12] = tested on: NCI-H23
[13] = tested on: OVCAR-4
[14] = tested on: HOP-62
[15] = tested on: DMS-273
[16] = tested on: NCI/ADR-RES
[17] = tested on: Malme-3M
[18] = tested on: SF-539
[19] = tested on: KM-20L2
[20] = tested on: U-251
[21] = tested on: HOP-92
[22] = tested on: UACC-62
[23] = tested on: OVCAR-8
[24] = tested on: MCF7
[25] = tested on: SNB-19
[26] = tested on: NCI-H226
[27] = tested on: RXF 393
[28] = tested on: OVCAR-3
[29] = tested on: IGROV-1
[30] = tested on: XF498
[31] = tested on: DLD-1
[32] = tested on: SF-268
[33] = tested on: SNB-78
[34] = tested on: LOX IMVI
[35] = tested on: SK-MEL-5
[36] = tested on: SK-MEL-28
[37] = tested on: CCRF-CEM
[38] = tested on: A498
[39] = tested on: DMS-114
[40] = tested on: SK-MEL-2
[41] = tested on: EKVX
[42] = tested on: SNB-75
[43] = tested on: HCC 2998
[44] = tested on: UACC-257
[45] = tested on: HCT-116
[46] = tested on: OVCAR-5
[47] = tested on: UO-31
[48] = tested on: A549
[49] = tested on: HOP-18
[50] = tested on: SF-295
[51] = tested on: HCT-15
[52] = tested on: SK-OV-3
[53] = tested on: NCI-H460
[54] = tested on: CAKI-1
[55] = tested on: TK-10
[56] = tested on: LXFL 529
[57] = tested on: 786-0
[58] = tested on: ACHN
[59] = tested on: SR
[60] = tested on: M14

Measured: GI50

O=C(NCCCCCCNC(=O)n1cc(F)c(=O)[nH]c1=O)NCCCOCCOCCCNC(=O)C(O)C(O)C(O)C(O)CO (stereo not drawn)
inactive: [1] > 2.5 µM | [2] > 2.5 µM | [3] > 2.5 µM | [4] > 2.5 µM | [5] > 2.29 µM | [6] > 2.5 µM | [7] > 2.5 µM | [8] > 2.32 µM | [9] > 2.5 µM | [10] > 2.5 µM | [11] > 2.5 µM | [12] > 2.5 µM | [13] > 2.5 µM | [14] > 2.5 µM | [15] > 2.5 µM | [16] > 2.5 µM | [17] > 1.53 µM | [18] > 1.84 µM | [19] > 2.5 µM | [20] > 2.5 µM | [21] > 2.5 µM | [22] > 2.5 µM | [23] > 2.5 µM | [24] > 2.27 µM | [25] > 2.5 µM | [26] > 2.5 µM | [27] > 2.5 µM | [28] > 2.5 µM | [29] > 2.5 µM | [30] > 2.5 µM | [31] 2.44 µM | [32] > 2.5 µM | [33] > 2.5 µM | [34] > 2.16 µM | [35] > 2.5 µM | [36] > 2.5 µM | [37] > 2.5 µM | [38] > 2.5 µM | [39] > 2.5 µM | [40] > 2.5 µM | [41] > 2.5 µM | [42] > 2.5 µM | [44] > 2.5 µM | [45] > 2.05 µM | [46] > 2.5 µM | [47] > 2.3 µM | [48] > 2.05 µM | [49] > 2.5 µM | [50] > 2.5 µM | [52] > 2.5 µM | [53] 1.51 µM
active: [43] 0.152 µM
2.43 µM: [51]

CN1C(c2ccccc2)CC(=O)C(N)C1c1ccccc1 (stereo not drawn)
26.1 µM: [51]
inactive: [1] 34.7 µM | [54] 28.3 µM | [2] 18.5 µM | [3] 17 µM | [4] 30.6 µM | [5] 20.6 µM | [6] 23.9 µM | [55] 43.7 µM | [7] 17.3 µM | [56] 17.6 µM | [8] 23.9 µM | [9] 19.9 µM | [10] 22.7 µM | [11] 20.1 µM | [12] 42.5 µM | [13] 49.4 µM | [14] > 92.5 µM | [15] 23.4 µM | [17] 22.1 µM | [57] 31.3 µM | [18] 42.1 µM | [19] 34.8 µM | [20] 21.4 µM | [21] 25.8 µM | [22] 27.2 µM | [23] 26.8 µM | [25] 56.9 µM | [26] 39.4 µM | [58] 35.9 µM | [27] 24.4 µM | [28] 33.7 µM | [29] 43.5 µM | [30] 14.7 µM | [31] 30.2 µM | [32] 38.2 µM | [33] 23.7 µM | [34] 18 µM | [35] 18.8 µM | [36] 18.6 µM | [37] 25.2 µM | [38] > 67.6 µM | [40] 19.4 µM | [41] > 53 µM | [42] 63.5 µM | [43] 20.8 µM | [59] 25 µM | [44] 30.3 µM | [45] 18 µM | [46] 35.4 µM | [47] 25.5 µM | [48] 38.7 µM | [49] 37.4 µM | [50] 48.9 µM | [60] 26.6 µM | [52] > 58.6 µM | [53] 22.2 µM

C=C(C)CC(C(=O)O)c1ccc(C)cc1 (stereo not drawn)
> 100 µM: [51]
inactive: [1] > 100 µM | [54] > 100 µM | [2] > 100 µM | [4] > 100 µM | [6] > 100 µM | [55] > 100 µM | [7] > 100 µM | [8] > 100 µM | [9] > 100 µM | [10] > 100 µM | [12] > 100 µM | [13] > 100 µM | [14] > 100 µM | [15] > 100 µM | [17] > 100 µM | [57] > 100 µM | [18] > 100 µM | [19] > 100 µM | [20] > 100 µM | [21] > 100 µM | [22] > 100 µM | [23] > 100 µM | [25] > 100 µM | [58] > 100 µM | [27] > 100 µM | [28] > 100 µM | [29] > 100 µM | [30] > 100 µM | [31] > 100 µM | [32] > 100 µM | [33] > 100 µM | [34] > 100 µM | [35] > 100 µM | [36] > 100 µM | [38] > 100 µM | [39] > 100 µM | [40] > 100 µM | [41] > 100 µM | [42] > 100 µM | [59] > 100 µM | [44] > 100 µM | [45] > 100 µM | [46] > 100 µM | [48] > 100 µM | [49] > 100 µM | [50] > 100 µM | [53] > 100 µM
